Measurements from patent US11427548B2 (Arvinas Operations, Inc., priority 2015, dated 2022).
Like-named read-outs stand apart in the source and are kept apart here.

Target: T1, Androgen Receptor (Homo sapiens, UniProt P10275)
T1 construct: endogenous in cells; host or cells: VCaP cells
T1 sequence (P10275 1-920): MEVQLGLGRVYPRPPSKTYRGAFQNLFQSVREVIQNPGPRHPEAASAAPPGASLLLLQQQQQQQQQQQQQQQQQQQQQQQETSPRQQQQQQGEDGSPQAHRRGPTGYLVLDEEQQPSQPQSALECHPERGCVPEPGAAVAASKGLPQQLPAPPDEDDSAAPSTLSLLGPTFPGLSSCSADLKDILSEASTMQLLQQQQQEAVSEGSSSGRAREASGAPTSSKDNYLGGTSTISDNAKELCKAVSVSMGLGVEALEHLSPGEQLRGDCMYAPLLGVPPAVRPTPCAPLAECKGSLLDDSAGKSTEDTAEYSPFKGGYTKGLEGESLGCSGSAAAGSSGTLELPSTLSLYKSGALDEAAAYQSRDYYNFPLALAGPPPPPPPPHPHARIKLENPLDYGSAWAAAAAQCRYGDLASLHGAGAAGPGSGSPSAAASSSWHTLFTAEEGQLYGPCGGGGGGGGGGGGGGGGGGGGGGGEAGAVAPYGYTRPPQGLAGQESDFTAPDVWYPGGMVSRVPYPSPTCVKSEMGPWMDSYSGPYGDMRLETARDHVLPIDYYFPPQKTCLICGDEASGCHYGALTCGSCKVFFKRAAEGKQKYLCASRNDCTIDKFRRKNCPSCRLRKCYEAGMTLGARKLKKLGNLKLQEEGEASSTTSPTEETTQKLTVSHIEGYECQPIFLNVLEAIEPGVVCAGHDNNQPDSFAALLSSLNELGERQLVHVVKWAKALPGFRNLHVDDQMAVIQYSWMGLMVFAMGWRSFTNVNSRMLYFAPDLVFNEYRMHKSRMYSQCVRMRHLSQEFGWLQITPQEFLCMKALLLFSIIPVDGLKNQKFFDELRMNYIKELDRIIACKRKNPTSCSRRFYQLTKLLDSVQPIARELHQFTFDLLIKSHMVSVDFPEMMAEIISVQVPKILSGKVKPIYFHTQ
Experiment: Androgen Receptor ELISA assay (PathScan AR ELISA) in VCaP cells: AR degradation, Dmax and DC50
Type: cell-based
In short: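 After 24 h exposure of VCaP cells (charcoal-stripped serum, 0.1 nM R1881 agonist, 0.1% DMSO) to seven half-log compound concentrations, residual AR in lysates was measured by PathScan ELISA (TMB absorbance, 450 nm). Cells were plated at 30,000/well and grown at least 3 days beforehand.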

[1] = read-out: VCaP DC50; concentration that caused 50% Androgen Receptor degradation, VCaP cells
[2] = VCaP, highest percentage of Androgen Receptor degradation observed, VCaP cells; read-out: VCaP Dmax (%)
[3] = concentration that caused 50% Androgen Receptor degradation, VCaP cells; read-out: VCaP DC50

Compound	Dmax (VCaP, read-out: VCaP Dmax (%)) [%]	DC50 [1] [nM]	Dmax [2] [%]	DC50 [3] [nM]
CC(C)(C)[C@H](NC(=O)COCCCOCCCCOc1ccc(N2C(=S)N(c3ccc(C#N)c(Cl)c3)C(=O)C2(C)C)cc1F)C(=O)N1C[C@H](O)C[C@H]1C(=O)NCc1ccc(-c2cncs2)cc1 [Example 46, (2S,4R)-1-[(2S)-2-{2-[3-(4-{4-[3-(3-chloro-4-cyanophenyl)-5,5-dimethyl-4-oxo-2-sulfanylideneimidazolidin-1-yl]-2-fluorophenoxy}butoxy)propoxy]acetamido}-3,3-dimethylbutanoyl]-4-hydroxy-N-{[4-(1,3-thiazol-5-yl)phenyl]methyl}pyrrolidine-2-carboxamide]	> 71	< 50		
CC(C)(C)[C@H](NC(=O)COCCCOCCCCOc1ccc(N2C(=S)N(c3cnc(C#N)c(C(F)(F)F)c3)C(=O)C2(C)C)cc1F)C(=O)N1C[C@H](O)C[C@H]1C(=O)NCc1ccc(-c2cnco2)cc1 [Example 47, (2S,4R)-1-[(2S)-2-(2-{3-[4-(4-{3-[6-cyano-5-(trifluoromethyl)pyridin-3-yl]-5,5-dimethyl-4-oxo-2-sulfanylideneimidazolidin-1-yl}-2-fluorophenoxy)butoxy]propoxy}acetamido)-3,3-dimethylbutanoyl]-4-hydroxy-N-{[4-(1,3-oxazol-5-yl)phenyl]methyl}pyrrolidine-2-carboxamide]			51 to 70	< 50
Cc1ncsc1-c1ccc(CNC(=O)[C@@H]2C[C@@H](O)CN2C(=O)[C@@H](NC(=O)COCCCOCCCCOc2ccc(N3C(=S)N(c4cnc(C#N)c(C(F)(F)F)c4)C(=O)C3(C)C)cc2F)C(C)(C)C)cc1 [Example 48, (2S,4R)-1-[(2S)-2-(2-{3-[4-(4-{3-[6-cyano-5-(ttifluoromethyl)pyridin-3-yl]-5,5-dimethyl-4-oxo-2-sulfanylideneimidazolidin-1-yl}-2-fluorophenoxy)butoxy]propoxy}acetamido)-3,3-dimethylbutanoyl]-4-hydroxy-N-{[4-(4-methyl-1,3-thiazol-5-yl)phenyl]methyl}pyrrolidine-2-carboxamide]			51 to 70	< 50
COc1cc(N2C(=O)C(C)(C)N(c3ccc(OCCCCOCCCOCC(=O)N[C@H](C(=O)N4C[C@H](O)C[C@H]4C(=O)NCc4ccc(-c5cnco5)cc4)C(C)(C)C)c(F)c3)C2=S)ccc1C#N [Example 49, (2S,4R)-1-[(2S)-2-{2-[3-(4-{4-[3-(4-cyano-3-methoxyphenyl)-5,5-dimethyl-4-oxo-2-sulfanylideneimidazolidin-1-yl]-2-fluorophenoxy}butoxy)propoxy]acetamido}-3,3-dimethylbutanoyl]-4-hydroxy-N-{[4-(1,3-oxazol-5-yl)phenyl]methyl}pyrrolidine-2-carboxamide]			51 to 70	< 50
Cn1nccc1-c1ccc(CNC(=O)[C@@H]2C[C@@H](O)CN2C(=O)[C@@H](NC(=O)COCCCOCCCCOc2ccc(N3C(=S)N(c4ccc(C#N)c(Cl)c4)C(=O)C3(C)C)cc2F)C(C)(C)C)cc1 [Example 50, (2S,4R)-1-[(2S)-2-{2-[3-(4-{4-[3-(3-chloro-4-cyanophenyl)-5,5-dimethyl-4-oxo-2-sulfanylideneimidazolidin-1-yl]-2-fluorophenoxy}butoxy)propoxy]acetamido}-3,3-dimethylbutanoyl]-4-hydroxy-N-{[4-(1-methyl-1H-pyrazol-5-yl)phenyl]methyl}pyrrolidine-2-carboxamide]	> 71	< 50		
Cc1ncsc1-c1ccc(CNC(=O)[C@@H]2C[C@@H](O)CN2C(=O)[C@@H](NC(=O)COCCCOCCCCOc2ccc(N3C(=S)N(c4ccc(C#N)c(C(F)(F)F)c4)C(=O)C34CCN(C)CC4)cc2)C(C)(C)C)cc1 [Example 51, (2S,4R)-1-[(2S)-2-(2-{3-[4-(4-{3-[4-cyano-3-(trifluoromethyl)phenyl]-8-methyl-4-oxo-2-sulfanylidene-1,3,8-triazaspiro[4.5]decan-1-yl}phenoxy)butoxy]propoxy}acetamido)-3,3-dimethylbutanoyl]-4-hydroxy-N-{[4-(4-methyl-1,3-thiazol-5-yl)phenyl]methyl}pyrrolidine-2-carboxamide]	26 to 50	< 50		
